Tests used:
[1] = molecular target: T1, rTRPV1 (Rattus norvegicus, UniProt O35433); assay: whole-cell patch clamp, block of capsaicin-evoked current; assay type: cell-based; conditions: channel block; capsaicin 100 nM; HEK293t, -60 mV, room temperature, pH 7.4
[2] = molecular target: hTRPA1 (Homo sapiens, UniProt O75762, C621S/C641S/C665S); assay: whole-cell patch clamp, evoked inward current; assay type: cell-based
[3] = molecular target: hTRPA1 (Homo sapiens, UniProt O75762); assay: whole-cell patch clamp, evoked inward current; assay type: cell-based
[4] = molecular target: mTRPA1 (Mus musculus, UniProt Q8BLA8); assay: whole-cell patch clamp, evoked inward current
[5] = molecular target: T1, rTRPV1; assay: whole-cell patch clamp, evoked inward current; assay type: cell-based; conditions: agonist; 10% PG (1366 mM); HEK293t, -60 mV, room temperature, pH 7.4

T1 sequence (O35433 whole entry): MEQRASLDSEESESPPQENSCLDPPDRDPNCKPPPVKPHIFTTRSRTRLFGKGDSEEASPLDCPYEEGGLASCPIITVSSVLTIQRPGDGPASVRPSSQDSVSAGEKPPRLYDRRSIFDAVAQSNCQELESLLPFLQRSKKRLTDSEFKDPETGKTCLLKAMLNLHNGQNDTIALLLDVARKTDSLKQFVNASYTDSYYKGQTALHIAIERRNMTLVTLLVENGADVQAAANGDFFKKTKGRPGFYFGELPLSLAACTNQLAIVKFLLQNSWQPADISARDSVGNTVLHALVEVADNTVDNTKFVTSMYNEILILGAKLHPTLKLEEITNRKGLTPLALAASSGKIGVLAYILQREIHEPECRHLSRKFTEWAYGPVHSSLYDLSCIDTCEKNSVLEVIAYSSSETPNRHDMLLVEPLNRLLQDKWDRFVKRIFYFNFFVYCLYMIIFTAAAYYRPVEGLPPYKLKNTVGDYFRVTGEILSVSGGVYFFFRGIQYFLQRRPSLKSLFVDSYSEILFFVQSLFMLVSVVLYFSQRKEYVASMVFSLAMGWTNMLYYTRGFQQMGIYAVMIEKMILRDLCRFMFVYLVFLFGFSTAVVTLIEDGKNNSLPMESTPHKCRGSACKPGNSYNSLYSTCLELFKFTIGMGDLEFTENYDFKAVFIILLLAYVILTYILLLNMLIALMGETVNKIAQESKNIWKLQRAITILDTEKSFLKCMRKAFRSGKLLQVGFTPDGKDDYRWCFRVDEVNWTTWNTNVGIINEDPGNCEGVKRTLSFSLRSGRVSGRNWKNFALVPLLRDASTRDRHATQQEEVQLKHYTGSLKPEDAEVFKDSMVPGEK
Sequence of mTRPA1 (Q8BLA8 whole entry): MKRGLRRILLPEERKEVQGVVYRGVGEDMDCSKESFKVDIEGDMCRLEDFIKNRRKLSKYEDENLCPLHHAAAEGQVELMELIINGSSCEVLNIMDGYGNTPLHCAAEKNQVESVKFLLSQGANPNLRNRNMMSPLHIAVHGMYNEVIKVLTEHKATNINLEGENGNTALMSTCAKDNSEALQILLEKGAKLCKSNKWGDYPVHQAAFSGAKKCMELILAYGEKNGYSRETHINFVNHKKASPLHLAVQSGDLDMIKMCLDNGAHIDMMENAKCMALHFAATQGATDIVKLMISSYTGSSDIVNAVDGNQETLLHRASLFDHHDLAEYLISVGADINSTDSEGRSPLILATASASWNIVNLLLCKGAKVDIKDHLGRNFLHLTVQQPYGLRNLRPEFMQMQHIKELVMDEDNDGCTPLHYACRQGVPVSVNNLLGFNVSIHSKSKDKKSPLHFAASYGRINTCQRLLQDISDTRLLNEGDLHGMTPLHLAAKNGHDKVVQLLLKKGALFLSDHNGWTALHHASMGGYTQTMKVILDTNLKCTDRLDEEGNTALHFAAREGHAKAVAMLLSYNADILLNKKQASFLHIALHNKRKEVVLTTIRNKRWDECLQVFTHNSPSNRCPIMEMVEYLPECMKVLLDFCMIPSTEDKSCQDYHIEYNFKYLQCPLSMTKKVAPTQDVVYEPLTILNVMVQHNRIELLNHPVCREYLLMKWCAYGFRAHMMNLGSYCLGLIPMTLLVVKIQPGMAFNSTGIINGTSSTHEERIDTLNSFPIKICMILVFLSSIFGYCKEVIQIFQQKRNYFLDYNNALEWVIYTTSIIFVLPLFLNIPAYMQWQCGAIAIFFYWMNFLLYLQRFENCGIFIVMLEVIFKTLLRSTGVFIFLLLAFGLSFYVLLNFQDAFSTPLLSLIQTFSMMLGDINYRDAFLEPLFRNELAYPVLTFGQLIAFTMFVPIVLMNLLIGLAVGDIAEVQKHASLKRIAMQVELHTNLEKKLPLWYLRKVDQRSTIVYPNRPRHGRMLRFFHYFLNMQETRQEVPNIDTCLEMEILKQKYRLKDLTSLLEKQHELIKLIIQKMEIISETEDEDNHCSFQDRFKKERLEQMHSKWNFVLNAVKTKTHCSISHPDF
Sequence of hTRPA1 (Homo sapiens, UniProt O75762) (O75762 whole entry): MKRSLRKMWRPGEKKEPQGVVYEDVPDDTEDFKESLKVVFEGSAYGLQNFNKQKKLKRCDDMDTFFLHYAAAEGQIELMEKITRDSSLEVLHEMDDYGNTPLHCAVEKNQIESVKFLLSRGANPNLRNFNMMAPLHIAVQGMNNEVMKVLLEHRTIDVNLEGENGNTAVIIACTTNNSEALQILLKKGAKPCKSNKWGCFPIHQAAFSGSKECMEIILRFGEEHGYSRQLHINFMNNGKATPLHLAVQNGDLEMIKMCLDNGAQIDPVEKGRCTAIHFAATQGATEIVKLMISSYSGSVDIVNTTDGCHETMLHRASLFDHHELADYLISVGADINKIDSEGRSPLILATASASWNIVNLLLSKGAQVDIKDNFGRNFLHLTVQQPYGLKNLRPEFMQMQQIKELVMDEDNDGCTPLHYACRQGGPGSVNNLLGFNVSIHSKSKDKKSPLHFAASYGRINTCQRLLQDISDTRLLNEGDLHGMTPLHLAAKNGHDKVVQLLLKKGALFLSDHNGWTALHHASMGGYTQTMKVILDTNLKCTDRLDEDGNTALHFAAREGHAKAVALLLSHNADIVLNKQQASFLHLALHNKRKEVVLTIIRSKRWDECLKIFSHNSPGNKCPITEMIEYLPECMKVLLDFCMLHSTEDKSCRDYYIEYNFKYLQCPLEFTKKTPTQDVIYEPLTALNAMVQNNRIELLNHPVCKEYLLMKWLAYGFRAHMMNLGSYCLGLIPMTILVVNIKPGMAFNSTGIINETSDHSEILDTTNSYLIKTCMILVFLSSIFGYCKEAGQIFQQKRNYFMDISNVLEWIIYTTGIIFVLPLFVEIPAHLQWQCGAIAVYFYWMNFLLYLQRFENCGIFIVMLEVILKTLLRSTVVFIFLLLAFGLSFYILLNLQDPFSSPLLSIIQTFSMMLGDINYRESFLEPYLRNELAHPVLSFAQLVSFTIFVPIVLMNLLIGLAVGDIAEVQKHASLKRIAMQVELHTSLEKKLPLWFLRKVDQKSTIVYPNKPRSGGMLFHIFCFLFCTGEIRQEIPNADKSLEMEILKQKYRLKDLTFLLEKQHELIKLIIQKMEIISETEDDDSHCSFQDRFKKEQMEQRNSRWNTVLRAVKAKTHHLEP
Sequence of hTRPA1 (Homo sapiens, UniProt O75762, C621S/C641S/C665S) (O75762 whole entry C621S/C641S/C665S): as the sequence (O75762 whole entry) above, with C621S, C641S, C665S counted along it

Compound | % current reduction at 100 μM [1] | EC50 [2] | EC50 [3] | EC50 [4] | current density at 10% PG [5]
CCOC(=O)c1cncn1[C@H](C)c1ccccc1 [etomidate] | 32 (95% CI: 20.2–43.8) | ~1.39 mM | 73 µM | 375 µM | 
CC(O)CO (centres unmarked) [propylene glycol] |  |  |  |  | 215 ± 26 pA/pF

From paper PMC6856977 (Molecular Pain, 2018)
